According to patent US20230270788A1, “COMPOSITION FOR AUGMENTING STEMNESS AND USE THEREOF” (GENECHEM INC., priority 2019, published 2023):

Assays:
[1] = test system: induced pluripotent stem cells-derived hepatic organoids; assay: Metabolic maturity of hepatic organoids, mRNA expression ratios by qRT-PCR; assay type: cell-based; conditions: 6 days; for ratios of ALB/AFP: FIG. 12
Excerpt: (§1) In Example 1, human bone marrow-derived mesenchymal stem cells (hBMSCs), human adipose tissue-derived mesenchymal stem cells (hATMSCs), human cord blood-derived mesenchymal stem cells (hCBMSCs), and induced pluripotent stem cells-derived hepatic organoid were used in this experiment. Dulbecco's Modified Eagle's Mediums (DMEM Low Glucose, available from HyClone in Logan, Utah, USA) including 10% fetal bovine serum (available from T&I in Gangwon, Korea), 1% antibiotics (penicillin/streptomycin, available from Gibco in Grand Island, NY, USA) were used as culture mediums of hBMSCs, hATMSCs, and hCBMSCs. After treating 3′-sialyllactose (available from GeneChem), 6′-sialyllactose (available from GeneChem), and a mixture of 3′-sialyllactose and 6′-sialyllactose, each in an amount of 100 μM, the culturing solutions were replaced every 3 days. The negative control was performed in the same manner after adding triple distilled water into the culturing solution. Also, a Hepatocyte Culture Medium (available from Lonza) including an endothelial cell growth medium-2 (available from Lonza), 2.5% FBS, 100 nM dexamethasone (available from Sigma-Aldrich), 20 ng/ml OSM (available from R&D system), and 10 ng/ml HGF (available from PeproTech) was used as the culturing solution of hepatic organoid, and the culturing solution was replaced every 3 days.
In Example 8, influence of a sialyloligosaccharide on maturity of induced pluripotent stem cells-derived hepatic organoids was to be confirmed. Particularly, after subculturing the hepatic organoids, the organoids were stabilized in a hepatic medium (HM) for a day and treated with 3′-sialyllactose and 6′-sialyllactose in concentrations of 0, 0.1, 1, 10, and 100 μM for 6 days, and then total RNAs were isolated from the hepatic organoids on the 7th day. The changes in expressions at mRNA level of CYP3A4, CYP2A7, ALB, and AFP, which are markers of metabolic maturity, were each measured by qRT-PCR, and the expression ratios were compared to confirm the metabolic maturity.

[2] = test system: human bone marrow-derived mesenchymal stem cells (hBMSCs); assay: Cell viability by CCK-8 analysis, hBMSCs; assay type: cell-based; conditions: FIG. 1; for influence on cell viability: all the concentrations (50, 100, 200, 400 μM); for cell viability: concentration of 100 μM
Procedure: (§2) In Example 2, influence of a sialyloligosaccharide on cell viability of stem cells was to be confirmed. Particularly, 3′-sialyllactose, 6′-sialyllactose, and a combination thereof were each treated on the subcultured stem cells in a concentration of 0, 50, 100, 200, or 400 μM, and the cell viability per concentration was verified by cell counting kit-8 (CCK-8) analysis. In particular, of hBMSCs, hATMSCs, and hCBMSCs were seeded in a 96-well plate. Then, the stem cells were treated with 3′-sialyllactose (GeneChem), 6′-sialyllactose (GeneChem), and a mixture of 3′-sialyllactose and 6′-sialyllactose in a concentration of 0, 50, 100, 200, or 400 μM and cultured in a DMEM low glucose medium (HyClone) including 1% antibiotics free of fetal bovine serum (T&I). Next, the viabilities of the cultured cells were confirmed by CCK-8 (Dojindo Laboratories, Kumamoto, Japan) analysis.

[3] = test system: human adipose tissue-derived mesenchymal stem cells (hATMSCs); assay: Cell viability by CCK-8 analysis, hATMSCs; assay type: cell-based; conditions: FIG. 2; for influence on cell viability: all the concentrations (50, 100, 200, 400 μM); for cell viability: concentration of 100 μM
Procedure: as §2

[4] = test system: hATMSCs; assay: Stemness markers OCT4, SOX2, NANOG by qRT-PCR and western blot, hATMSCs; assay type: cell-based, human; conditions: 100 μM, compared to stem cells cultured without a sialyllactose, FIG. 5
Excerpt: as §1
(§3) In Example 3, influence of a sialyloligosaccharide on stemness of stem cells was to be confirmed. Particularly, after treating mesenchymal stem cells with each of 3′-sialyllactose, 6′-sialyllactose, and a combination thereof, mRNAs of OCT4, SOX2, and NANOG, which are stem cell markers of the mesenchymal stem cells, and changes in expression at protein levels were each measured by quantitative real-time reverse transcription-polymerase chain reaction (qRT-PCR) and western blot. In particular, total RNAs were isolated from the cells collected after culturing the cells in the same manner as in Example 1, and change in mRNA expression of the isolated total RNAs was confirmed by qRT-PCR using OCT4 primers available from Bioneer (Daejeon, Korea), SOX2 primers available from Bioneer (P200205), and NANOG primers.

[5] = test system: hCBMSCs; assay: Stemness markers OCT4, SOX2, NANOG by qRT-PCR and western blot, hCBMSCs; assay type: cell-based, human; conditions: 100 μM, compared to stem cells cultured without a sialyllactose, FIG. 6
Excerpt: as §1, §3

[6] = test system: induced pluripotent stem cells-derived hepatic organoids; assay: Cell viability of hepatic organoids by CCK analysis; assay type: cell-based; conditions: concentrations of 0.1, 1, 10, and 100 μM for 6 days, 7th day, FIG. 10
Excerpt: (§4) In Example 1, human bone marrow-derived mesenchymal stem cells (hBMSCs), human adipose tissue-derived mesenchymal stem cells (hATMSCs), human cord blood-derived mesenchymal stem cells (hCBMSCs), and induced pluripotent stem cells-derived hepatic organoid were used in this experiment. Dulbecco's Modified Eagle's Mediums (DMEM Low Glucose, available from HyClone in Logan, Utah, USA) including 10% fetal bovine serum (available from T&I in Gangwon, Korea), 1% antibiotics (penicillin/streptomycin, available from Gibco in Grand Island, NY, USA) were used as culture mediums of hBMSCs, hATMSCs, and hCBMSCs. After treating 3′-sialyllactose (available from GeneChem), 6′-sialyllactose (available from GeneChem), and a mixture of 3′-sialyllactose and 6′-sialyllactose, each in an amount of 100 μM, the culturing solutions were replaced every 3 days. The negative control was performed in the same manner after adding triple distilled water into the culturing solution. Also, a Hepatocyte Culture Medium (available from Lonza) including an endothelial cell growth medium-2 (available from Lonza), 2.5% FBS, 100 nM dexamethasone (available from Sigma-Aldrich), 20 ng/ml OSM (available from R&D system), and 10 ng/ml HGF (available from PeproTech) was used as the culturing solution of hepatic organoid, and the culturing solution was replaced every 3 days. […]

[7] = test system: hBMSCs; assay: Stemness markers OCT4, SOX2, NANOG by qRT-PCR and western blot, hBMSCs; assay type: cell-based, human; conditions: 100 μM, compared to stem cells cultured without a sialyllactose, FIG. 4
Excerpt: as §1, §3

[8] = test system: human cord blood-derived mesenchymal stem cells (hCBMSCs); assay: Cell viability by CCK-8 analysis, hCBMSCs; assay type: cell-based; conditions: FIG. 3; for influence on cell viability: all the concentrations (50, 100, 200, 400 μM); for cell viability: concentration of 100 μM
Procedure: as §2

[9] = test system: hBMSCs; assay: Senescence-associated beta-galactosidase (SA-β-gal) staining; assay type: cell-based, human; conditions: hBMSCs of 10 passages, 100 μM, versus without treatment, FIG. 7C
Procedure: Also, in order to confirm a degree of senescence of the stem cells after being treated with 3′-sialyllactose (GeneChem), senescence-associated beta-galactosidase staining was performed on hBMSCs of 10 passages, treated with 100 μM of 3′-sialyllactose. In particular, after fixing the cells in formalin, the resultant washed with PBS, and 1 mg/mL of a β-gal staining solution X-Gal, 40 mM of a citric acid-sodium phosphate buffer solution, 150 mM of NaCl, 2 mM of MgCl2, 5 mM of potassium ferrocyanide, and 5 mM of potassium ferricyanide (pH 6.0, available from Sigma-Aldrich, St. Louis, USA) were add to the resultant and reacted at 37° C. Then, degrees of senescence activity of the aged cells (blue, positive) and cells not showing activity of senescence (negative) were confirmed using Eclipse TS100 (available from Nikon USA, Melville, N.Y., USA).

[10] = test system: hBMSCs; assay: Cell viability per subculturing passage by CCK-8; assay type: cell-based, human; conditions: hBMSCs subcultured for 4, 7, 10, and 12 passages, 100 μM, FIG. 9
Procedure: In Example 6, influence of a sialyloligosaccharide on viability of stem cells according to cell subculturing passages was to be confirmed. Particularly, hBMSCs subcultured for 4, 7, 10, and 12 passages were treated with 3′-sialyllactose in a concentration of 100 μM, and the cell viability was confirmed by cell counting kit-8 assay (CCK-8) analysis. In particular, the hBMSCs were seeded in a 96-well plate. Then, the stem cells were treated with 3′-sialyllactose (GeneChem) in a concentration of 100 μM and cultured in a DMEM low glucose medium (HyClone) including 1% antibiotics free of fetal bovine serum (T&I). Viabilities of the cultured cells were confirmed by the CCK-8 analysis.

[11] = test system: hBMSCs; assay: Cell senescence factors p16 and p53 by qRT-PCR and Western Blot after subculturing; assay type: cell-based, human; conditions: hBMSCs subcultured, 100 μM, versus without treatment, FIG. 7
Excerpt: as §4, with “solution.” for “solution. Also, a Hepatocyte Culture Medium (available from Lonza) including an endothelial cell growth medium-2 (available from Lonza), 2.5% FBS, 100 nM dexamethasone (available from Sigma-Aldrich), 20 ng/ml OSM (available from R&D system), and 10 ng/ml HGF (available from PeproTech) was used as the culturing solution of hepatic organoid, and the culturing solution was replaced every 3 days.”
In Example 4, influence of a sialyloligosaccharide on senescence of stem cells was to be confirmed. Particularly, after treating the hBMSC stem cells with 3′-sialyllactose, changes in expression at mRNA and protein levels of p16 and p53, which are cell senescence factors after subculturing were each measured by qRT-PCT and Western Blot. […]

[12] = test system: hBMSCs; assay: Proliferation genes CCNA2 and CDK2 expression by qRT-PCR; assay type: cell-based, human; conditions: hBMSCs having low proliferation ability, 100 μM, mRNA, FIG. 8
Excerpt: as §4

| SMILES | influence on cell viability [2] | cell viability [2] | influence on cell viability [3] | cell viability [3] | expression at mRNA and protein levels of NANOG [4] | expression at mRNA and protein levels of OCT4 [4] | expression at mRNA and protein levels of SOX2 [4] | expression at mRNA and protein levels of NANOG [5] | expression at mRNA and protein levels of OCT4 [5] | expression at mRNA and protein levels of SOX2 [5] | cell viability of hepatic organoids [6] | expression at mRNA and protein levels of NANOG [7] | expression at mRNA and protein levels of OCT4 [7] | expression at mRNA and protein levels of SOX2 [7] | influence on cell viability [8] | cell viability [8] | also measured |
| --- | --- | --- | --- | --- | --- | --- | --- | --- | --- | --- | --- | --- | --- | --- | --- | --- | --- |
| CC(=O)N[C@H]1[C@H]([C@H](O)[C@H](O)CO)O[C@@](OC[C@H]2O[C@@H](O[C@H]3[C@H](O)[C@@H](O)[C@H](O)O[C@@H]3CO)[C@H](O)[C@@H](O)[C@H]2O)(C(=O)O)C[C@@H]1O [6′-sialyllactose] | did not negatively influence the cell viability | increased significantly | did not negatively influence the cell viability | increased significantly | significantly increased | significantly increased | significantly increased | significantly increased | significantly increased | significantly increased | significantly increased | significantly increased | significantly increased | significantly increased | did not negatively influence the cell viability | increased significantly | ratios of ALB/AFP ([1]; concentrations of 0.1 and 100 μM): significantly increased |
| CC(=O)N[C@H]1[C@H]([C@H](O)[C@H](O)CO)O[C@@](O[C@H]2[C@@H](O)[C@@H](CO)O[C@@H](O[C@H]3[C@H](O)[C@@H](O)C(O)O[C@@H]3CO)[C@@H]2O)(C(=O)O)C[C@@H]1O (some centres unmarked) [3′-sialyllactose] | did not negatively influence the cell viability | increased significantly | did not negatively influence the cell viability | increased significantly | significantly increased | significantly increased | significantly increased | significantly increased | significantly increased | significantly increased | significantly increased | significantly increased | significantly increased | significantly increased | did not negatively influence the cell viability | increased significantly | ratios of ALB/AFP ([1]; concentrations of 1, 10, and 100 μM): significantly increased; ratios of CYP3A4/CYP3A7 ([1]; concentrations of 1 and 10 μM, FIG. 11): significantly increased; SA-β-gal activity [9]: low SA-β-gal activity; cell viability [10]: significantly increased; expression at mRNA and protein levels of p16 [11]: very low expression; expression at mRNA and protein levels of p53 [11]: very low expression; expression of CCNA2 [12]: significantly increased; expression of CDK2 [12]: significantly increased |
